Laboratory results reported in patent US6548494B1, “Tricyclic inhibitors of poly(ADP-ribose) polymerases” (Agouron Pharmaceuticals, Inc., priority 1999, dated 2003).
“And” between values parts separate entries of the source, which are not always exact repeats. Equal entries are not always repeated.

Experiments:
A549 cells = experiment: Cytotoxicity potentiation assay; type: cell-based; conditions: test compound 0.4 μM, ratio of IC50 of topotecan alone to IC50 of topotecan with test compound
Procedure: A549 cells (ATCC, Rockville, Md.) were seeded into 96-well cell culture plates (Falcon brand, Fisher Scientific, Pittsburgh, Pa.) 16 to 24 hours before experimental manipulation. Cells were then treated with a test compound (or a combination of test compounds where indicated) each at a concentration of 0.4 μM for either 3 days or 5 days. At the end of treatments, relative cell number was determined either by MTT assay or SRB assay. For the MTT assay, 0.2 μg/μl of MTT (3-(4,5-dimethylthiazol-2-yl)-2,5-diphenyltetrazolium bromide) (Sigma Chemical Co., St. Louis, Mo.) was added to each well of a plate, and the plate was incubated in a cell-culture incubator for 4 hours. Metabolized MTT in each well was solubilized in 150 μl of DMSO (Sigma Chemical Co.) with shaking and quantified with a Wallac 1420 Victor plate reader (EG&G Wallac, Gaithersburg, Md.) at 540 nm. For the SRB assay, cells were fixed with 10% trichloroacetic acid (Sigma Chemical Co) for an hour at 4° C. After extensively washing, fixed cells were stained for 30 minutes with 0.4% sulforhodamine B (SRB, Sigma Chemical Co.) in 1% acetic acid (Sigma Chemical Co). Unbound SRB was washed away with 1% acetic acid. Then the cultures were air-dried, and dye was solubilized with 10 mM unbuffered Tris base (Sigma Chemical Co) with shaking. The bound dye was measured photometrically with the Wallac Victor plate reader at 515 nm. The ratio of the OD (optical density) value of a compound-treated culture to the OD value of a mock-treated culture, expressed in percentage, was used to quantify the cytotoxicity of a compound. […] To quantify the potentiation of the cytotoxicity of topotecan or temozolomide by test compounds, a dimensionless parameter PF50 is used and is defined as the ratio of the IC50 of topotecan or temozolomide alone to the IC50 of topotecan or temozolomide in combination with a test compound. For the compounds of the invention, PF50 values were determined by testing with topotecan.

purified PARP protein = purified PARP protein (Homo sapiens, UniProt P09874); experiment: PARP enzyme inhibition assay; type: biochemical; conditions: 20 nM purified PARP (5 nM for tight-binding inhibitors), 500 μM NAD+, 25° C.; several values in one cell = repeat determinations; read-out: Inhibition Constant Ki
purified PARP protein, sequence (P09874 whole entry): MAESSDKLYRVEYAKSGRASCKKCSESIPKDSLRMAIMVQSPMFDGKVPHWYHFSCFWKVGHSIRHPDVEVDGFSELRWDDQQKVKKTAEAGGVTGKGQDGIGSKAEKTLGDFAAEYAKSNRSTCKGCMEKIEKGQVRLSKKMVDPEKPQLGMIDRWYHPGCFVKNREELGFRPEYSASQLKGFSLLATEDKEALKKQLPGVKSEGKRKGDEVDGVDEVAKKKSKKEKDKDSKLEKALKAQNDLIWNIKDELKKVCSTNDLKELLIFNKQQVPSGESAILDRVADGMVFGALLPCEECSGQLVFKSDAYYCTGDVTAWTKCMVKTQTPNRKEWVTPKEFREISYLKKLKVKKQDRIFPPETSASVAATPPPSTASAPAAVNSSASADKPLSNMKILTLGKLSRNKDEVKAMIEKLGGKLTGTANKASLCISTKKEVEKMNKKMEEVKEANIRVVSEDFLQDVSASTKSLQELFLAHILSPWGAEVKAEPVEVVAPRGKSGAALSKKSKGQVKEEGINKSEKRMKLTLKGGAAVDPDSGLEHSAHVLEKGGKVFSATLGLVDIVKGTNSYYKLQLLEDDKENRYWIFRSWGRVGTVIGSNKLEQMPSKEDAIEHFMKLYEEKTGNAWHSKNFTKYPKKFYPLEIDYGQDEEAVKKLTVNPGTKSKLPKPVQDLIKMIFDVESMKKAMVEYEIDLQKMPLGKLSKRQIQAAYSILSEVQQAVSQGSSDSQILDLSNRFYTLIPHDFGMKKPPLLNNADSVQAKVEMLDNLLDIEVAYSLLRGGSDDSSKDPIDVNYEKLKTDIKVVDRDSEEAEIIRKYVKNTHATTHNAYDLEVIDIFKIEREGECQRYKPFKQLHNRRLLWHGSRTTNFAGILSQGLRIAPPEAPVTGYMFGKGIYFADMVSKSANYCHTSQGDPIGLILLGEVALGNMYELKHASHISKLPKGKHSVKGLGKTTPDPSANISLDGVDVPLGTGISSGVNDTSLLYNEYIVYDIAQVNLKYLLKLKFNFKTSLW

| melting point | Ki (purified PARP protein) | SMILES | Cytotoxicity Potentiation PF50 (A549 cells) |
| --- | --- | --- | --- |
| > 300 °C (dec.) | 3.2 nM and 4.2 nM | O=C1NCCn2c(-c3ccc(-n4ccnc4)cc3)nc3cccc1c32 [Example 119, 1-(4-Imidazol-1-yl-phenyl)-8,9-dihydro-7H-2,7,9a-triaza-benzo[cd]azulen-6-one] | 2.2 |
| 224 °C (dec.) |  | S=C1NCCn2c(-c3ccccc3)nc3cccc1c32 [Example 25, 1-Phenyl-8,9-dihydro-7H-2,7,9a-triaza-benzo[cd]azulen-6-thione] | 1.4 |
| 253 to 255 °C | 7.7 nM | O=C1NCCn2c(-c3ccccc3Cl)nc3cccc1c32 [Example 5, 1-(2-Chloro-phenyl)-8,9-dihydro-7H-2,7,9a-triaza-benzo[cd]azulen-6-one] | 1.3 |
| 235 to 238 °C (dec.) | 4.2 nM | CN1CCCC1c1ccc(-c2nc3cccc4c3n2CCNC4=O)cc1 (stereo not drawn) [Example 149] | 2.6 |
| 172 to 174 °C | 3.1 nM | CN(C)Cc1ccc(-c2cc3cc(F)cc4c3n2CCNC4=O)cc1 [Example 170, 6-(4-Dimethylaminomethyl-phenyl)-9-fluoro-3,4-dihydro-2H-[1,4]diazepino[6,7,1-hi]indol-1-one] | 1.9 |
| 285 to 286 °C (dec.) | 5.1 nM | O=C1NCCn2c(-c3ccc(CN4CCOCC4)cc3)nc3cccc1c32 [Example 76, 1-(4-Morpholin-4-ylmethyl-phenyl)-8,9-dihydro-7H-2,7,9a-triaza-benzo[cd]azulen-6-one] | 1.6 |
| 192 to 194 °C (dec.) | 6.3 nM | CN(C)Cc1cccc(-c2nc3cccc4c3n2CCNC4=O)c1 [Example 32, 1-(3-Dimethylaminomethyl-phenyl)-8,9-dihydro-7H-2,7,9a-triaza-benzo[cd]azulen-6-one] | 1.8 |
| 245 to 247 °C | 4.8 nM and 5.3 nM | O=C1NCCn2c(-c3cccc(Oc4ccncc4)c3)nc3cccc1c32 [Example 17, 1-[3-(Pyridin-4-yloxy)-phenyl]-8,9-dihydro-7H-2,7,9a-triaza-benzo[cd]azulen-6-one] | 1.7 |
| 249 to 250 °C | 21 nM and 17 nM | O=C1NCCn2c(-c3ccccn3)nc3cccc1c32 [Example 12, 1-Pyridin-2-yl-8,9-dihydro-7H-2,7,9a-triaza-benzo[cd]azulen-6-one] | 1.3 |
| 284 to 287 °C | 3.4 nM | O=C1NCCn2c(-c3ccc(F)cc3)nc3cc(F)cc1c32 [Example 18, 4-Fluoro-1-(4-fluoro-phenyl)-8,9-dihydro-7H-2,7,9a-triaza-benzo[cd]azulen-6-one] | 2 |
| 84 °C (dec.) | 2.3 nM | O=C1NCCn2c(-c3ccc(CNC4CC4)cc3)nc3cccc1c32 [Example 101, 1-(4-Cyclopropylaminomethyl-phenyl)-8,9-dihydro-7H-2,7,9a-triaza-benzo[cd]azulen-6-one] | 2.1 |
| > 240 °C (dec.) | 5.5 nM | CN1CCC(c2ccc(-c3nc4cccc5c4n3CCNC5=O)cc2)CC1 [Example 141, 1-[4-(1-Methyl-piperidin-4-yl)-phenyl]-8,9-dihydro-7H-2,7,9a-triaza-benzo[cd]azulen-6-one] | 2.3 |
| > 230 °C (dec.) | 3.8 nM | O=C1NCCn2c(-c3ccc(C4CCCNC4)cc3)nc3cccc1c32 (stereo not drawn) [Example 142, 1-(4-Piperidin-3-yl-phenyl)-8,9-dihydro-7H-2,7,9a-triaza-benzo[cd]azulen-6-one] | 2.2 |
| 250 to 252 °C | 11.2 nM | O=C1NCCn2c(-c3cccc(C(F)(F)F)c3)nc3cccc1c32 [Example 10, 1-(3-Trifluoromethyl-phenyl)-8,9-dihydro-7H-2,7,9a-triaza-benzo[cd]azulen-6-one] | 1.7 |
| 269 °C (dec.) | 10.9 nM and 12 nM | O=C1NCCn2c(-c3ccncc3)nc3cccc1c32 [Example 3, 1-Pyridin-4-yl-8,9-dihydro-7H-2,7,9a-triaza-benzo[cd]azulen-6-one] | 1.4 |
| 216 to 219 °C | 4.3 nM | O=C1NCCn2c(-c3cccc(Oc4ccccc4)c3)nc3cccc1c32 [Example 6, 1-(3-Phenoxy-phenyl)-8,9-dihydro-7H-2,7,9a-triaza-benzo[cd]azulen-6-one] | 2 |
| 263 to 265 °C | 4.4 nM and 5.6 nM | O=C1NCCn2c(-c3ccc(C4CCCCN4)cc3)nc3cccc1c32 (stereo not drawn) [Example 130, 1-(4-Piperidin-2-yl-phenyl)-8,9-dihydro-7H-2,7,9a-triaza-benzo[cd]azulen-6-one] | 3.4 |
| 98 to 100 °C | 9.1 nM | CN(C)Cc1cccc(-c2cc3cccc4c3n2CCNC4=O)c1 [Example 86, 6-(3-Dimethylaminomethyl-phenyl)-3,4-dihydro-2H-[1,4]diazepino[6,7,1-hi]indol-1-one] | 1.6 |
| 240 °C (dec.) | 1.7 nM | CN(C)Cc1ccc(-c2nc3cc(F)cc4c3n2CCNC4=O)cc1 [Example 99, 4-Fluoro-1-(4-dimethylaminomethyl-phenyl)-8,9-dihydro-7H-2,7,9a-triaza-benzo[cd]azulen-6-one] | 2.0 |
| > 180 °C (dec.) | 6.8 nM | CN1CCCCC1c1ccc(-c2nc3cccc4c3n2CCNC4=O)cc1 (stereo not drawn) [Example 132, 1-[4-(1-Methyl-piperidin-2-yl)-phenyl]-8,9-dihydro-7H-2,7,9a-triaza-benzo[cd]azulen-6-one] | 2.4 |
| > 192 °C (dec.) | 5.4 nM | O=C1NCCn2c(-c3ccc(C4CCNCC4)cc3)nc3cccc1c32 [Example 137, 1-(4-Piperidin-4-yl-phenyl)-8,9-dihydro-7H-2,7,9a-triaza-benzo[cd]azulen-6-one] | 2.2 |
|  | 8 nM and 6 nM | O=C1NCCn2c(-c3ccc(F)cc3)nc3cccc1c32 [Example 2, 1-(4-Fluoro-phenyl)-8,9-dihydro-7H-2,7,9a-triaza-benzo[cd]azulen-6-one] | 1.6 |
|  | 5.5 nM | COc1ccc(CCNCc2ccc(-c3nc4cccc5c4n3CCNC5=O)cc2)cc1 [Example 186, 1-(4-{[2-(4-Methoxy-phenyl)-ethylamino]-methyl}-phenyl)-2,7,8,9-tetrahydro-2,7,9a-triaza-benzo[cd]azulen-6-one] | 2.2 |
|  | 5.8 nM | CN(C)Cc1ccc(-c2nc3cccc4c3n2CCNC4=O)cc1 [Example 58, 1-(4-Dimethylaminomethyl-phenyl)-8,9-dihydro-7H-2,7,9a-triaza-benzo[cd]azulen-6-one] | 2.0 |
|  | 8 nM | C[C@H]1Cn2c(-c3ccc(CN4CCCC4)cc3)nc3cccc(c32)C(=O)N1 [Example 233, (S)-8-Methyl-1-(4-pyrrolidin-1-ylmethyl-phenyl)-8,9-dihydro-7H-2,7,9a-triaza-benzo[cd]azulen-6-one] | 2.2 |
|  | 6.8 nM | CC1CCCN1Cc1ccc(-c2nc3cccc4c3n2CCNC4=O)cc1 (stereo not drawn) [Example 212, 1-[4-(2-Methyl-pyrrolidin-1-ylmethyl)-phenyl]-8,9-dihydro-7H-2,7,9a-triaza-benzo[cd]azulen-6-one] | 2.0 |
|  | 102 nM | O=C1NCCn2c(O)nc3cccc1c32 [Example 26, 8,9-Dihydro-2H 7H-2,7,9a-triaza-benzo[cd]azulen-1,6-dione] | 1.1 |
|  | 5 nM | O=C1NCCn2c(-c3ccc(CN4CCCC4)cc3)nc3cccc1c32 [Example 210, 1-(4-Pyrrolidin-1-ylmethyl-phenyl)-8,9-dihydro-7H-2,7,9a-triaza-benzo[cd]azulen-6-one] | 2.3 |
|  | 8.9 nM | CC1C=CC(C)N1Cc1ccc(-c2nc3cccc4c3n2CCNC4=O)cc1 (racemic) [Example 243, 1-[4-(2,5-Dimethyl-2,5-dihydro-pyrrol-1-ylmethyl)-phenyl]-8,9-dihydro-7H-2,7,9a-triaza-benzo[cd]azulen-6-one] | 2.0 |
